Laboratory results as given in patent publication US11053235B2, “Substituted 1,4-dihydropyrimidines for the treatment of HBV infection or HBV-induced diseases” (Janssen Sciences Ireland Unlimited Company, priority 2018, dated 2021).

How the values were obtained:
[1] = Cytotoxicity determination in HepG2.2.15 cells (CCK-8); type: cell-based; conditions: human, 6 days treatment, CCK-8, highest concentration 100 uM
Summary of the method: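 HepG2.2.15 cells seeded at 5,000 cells/well in 2% FBS medium and exposed to compounds for 6 days (medium refreshed once), 8 three-fold dilutions from 100 uM. Viability read by CCK-8 after 2.5 h at 37 °C, absorbance 450 nm with 630 nm reference; CC50 calculated.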

HBV = experiment: Anti-viral assay in HepG2.2.15 cells: HBV inhibitory activity (HBV DNA in culture medium by q-PCR); type: cell-based; conditions: Hepatitis B virus, HepG2.2.15, 144 h, HepG2.2.15 cells, 6 days treatment, HBV DNA in culture medium by q-PCR, highest concentration 10 uM; read-out: EC50
Summary of the method: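 HepG2.2.15 cells seeded at 40,000/well in 2% FBS medium, dosed next day for 6 days (medium refreshed once midway); 8-point 3-fold dilutions from 10 uM top. HBV DNA in culture medium extracted and quantified by q-PCR; EC50 calculated from dose-response.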

| Compound | CC50 at 6 days [1] | EC50 (HBV) |
| --- | --- | --- |
| COC(=O)C1=C(C2CCN(c3ncc(CC(=O)O)c(C)n3)CC2)NC(c2nccs2)=NC1c1ccc(F)c(F)c1Cl (single isomer, unassigned) [II-28-B, 2-(2-(4-(6-(2-Chloro-3,4-difluorophenyl)-5-(methoxycarbonyl)-2-(thiazol-2-yl)-3,6-dihydropyrimidin-4-yl)piperidin-1-yl)-4-methylpyrimidin-5-yl)acetic Acid] | 5330 nM | < 4.6 nM |
| COC(=O)C1=C(C2CCN(c3ncc(CC(=O)O)cn3)CC2)NC(c2nccs2)=NC1c1ccc(F)c(F)c1Cl (single isomer, unassigned) [II-29-B, 2-(2-(4-(6-(2-Chloro-3,4-difluorophenyl)-5-(methoxycarbonyl)-2-(thiazol-2-yl)-3,6-dihydropyrimidin-4-yl)piperidin-1-yl)pyrimidin-5-yl)acetic Acid] | 9460 nM | < 4.6 nM |
| COC(=O)C1=C(C2CCN(c3ncc(C(=O)O)s3)CC2)NC(c2nccs2)=NC1c1ccc(F)c(F)c1Cl (single isomer, unassigned) [II-30-B, 2-(4-(6-(2-Chloro-3,4-difluorophenyl)-5-(methoxycarbonyl)-2-(thiazol-2-yl)-3,6-dihydropyrimidin-4-yl)piperidin-1-yl)thiazole-5-carboxylic Acid] | 16000 nM | 7.2 nM |
| COC(=O)C1=C(C2CCN(c3nc(C(F)(F)F)c(C(=O)O)s3)CC2)NC(c2nccs2)=NC1c1ccc(F)c(F)c1Cl (single isomer, unassigned) [II-31-B, 2-(4-(6-(2-Chloro-3,4-difluorophenyl)-5-(methoxycarbonyl)-2-(thiazol-2-yl)-3,6-dihydropyrimidin-4-yl)piperidin-1-yl)-4-(trifluoromethyl)thiazole-5-carboxylic Acid] | 2610 nM | 25 nM |
| COC(=O)C1=C(C2CCN(c3nc(C(=O)O)cs3)CC2)NC(c2nccs2)=NC1c1ccc(F)c(F)c1Cl (single isomer, unassigned) [II-32-B, 2-(4-(6-(2-Chloro-3,4-difluorophenyl)-5-(methoxycarbonyl)-2-(thiazol-2-yl)-3,6-dihydropyrimidin-4-yl)piperidin-1-yl)thiazole-4-carboxylic Acid] | 11100 nM | 46 nM |
| COC(=O)C1=C(C2CCN(c3nc(C(=O)O)co3)CC2)NC(c2nccs2)=NC1c1ccc(F)c(F)c1Cl (single isomer, unassigned) [II-33-B, 2-(4-(6-(2-Chloro-3,4-difluorophenyl)-5-(methoxycarbonyl)-2-(thiazol-2-yl)-3,6-dihydropyrimidin-4-yl)piperidin-1-yl)oxazole-4-carboxylic Acid] | 18600 nM | 45 nM |
| CCOC(=O)C1=C(C2CCN(c3ccc(C(=O)O)cc3)CC2)NC(c2nccs2)=NC1c1ccc(F)c(F)c1Cl (single isomer, unassigned) [II-35-A, 4-(4-(6-(2-Chloro-3,4-difluorophenyl)-5-(ethoxycarbonyl)-2-(thiazol-2-yl)-3,6-dihydropyrimidin-4-yl)piperidin-1-yl)benzoic Acid] | 3960 nM | 20 nM |
| CCOC(=O)C1=C(C2CCN(c3cc(O)c(C(=O)O)cn3)CC2)NC(c2nccs2)=NC1c1ccc(F)c(F)c1Cl (single isomer, unassigned) [II-36-B, 6-(4-(6-(2-chloro-3,4-difluorophenyl)-5-(ethoxycarbonyl)-2-(thiazol-2-yl)-3,6-dihydropyrimidin-4-yl)piperidin-1-yl)-4-hydroxynicotinic Acid] | 8650 nM | 52 nM |
| CCOC(=O)C1=C(C2CCN(c3cccc(C(=O)O)n3)CC2)NC(c2nccs2)=NC1c1ccc(F)c(F)c1Cl (single isomer, unassigned) [II-37-B, 6-(4-(6-(2-Chloro-3,4-difluorophenyl)-5-(ethoxycarbonyl)-2-(thiazol-2-yl)-3,6-dihydropyrimidin-4-yl)piperidin-1-yl)picolinic Acid] | 6410 nM | 61 nM |
| CCOC(=O)C1=C(C2CCN(c3cc(C(=O)O)cc(C(F)(F)F)n3)CC2)NC(c2nccs2)=NC1c1ccc(F)c(F)c1Cl (single isomer, unassigned) [II-38-B, 2-(4-(6-(2-chloro-3,4-difluorophenyl)-5-(ethoxycarbonyl)-2-(thiazol-2-yl)-3,6-dihydropyrimidin-4-yl)piperidin-1-yl)-6-(trifluoromethyl)isonicotinic Acid] | 3880 nM | 81 nM |
| CCOC(=O)C1=C(C2CCN(c3cc(C(=O)O)c(C(F)(F)F)cn3)CC2)NC(c2nccs2)=NC1c1ccc(F)c(F)c1Cl (single isomer, unassigned) [II-39-B, 2-(4-(6-(2-Chloro-3,4-difluorophenyl)-5-(ethoxycarbonyl)-2-(thiazol-2-yl)-3,6-dihydropyrimidin-4-yl)piperidin-1-yl)-5-(trifluoromethyl)isonicotinic Acid] | 5380 nM | 14 nM |
| CCOC(=O)C1=C(C2CCN(c3nccc(C(=O)O)c3F)CC2)NC(c2nccs2)=NC1c1ccc(F)c(F)c1Cl (single isomer, unassigned) [II-40-B, 2-(4-(6-(2-Chloro-3,4-difluorophenyl)-5-(ethoxycarbonyl)-2-(thiazol-2-yl)-3,6-dihydropyrimidin-4-yl)piperidin-1-yl)-3-fluoroisonicotinic Acid] | 8370 nM | 9.1 nM |
| CCOC(=O)C1=C(C2CCN(c3cc(C(=O)O)ccn3)CC2)NC(c2nccs2)=NC1c1ccc(F)c(F)c1Cl (single isomer, unassigned) [II-41-B, 2-(4-(6-(2-Chloro-3,4-difluorophenyl)-5-(ethoxycarbonyl)-2-(thiazol-2-yl)-3,6-dihydropyrimidin-4-yl)piperidin-1-yl)isonicotinic Acid] | 10200 nM | 5.2 nM |
| CCOC(=O)C1=C(C2CCN(c3ccc(C(=O)O)nc3Cl)CC2)NC(c2nccs2)=NC1c1ccc(F)c(F)c1Cl (single isomer, unassigned) [II-42-B, 6-Chloro-5-(4-(6-(2-chloro-3,4-difluorophenyl)-5-(ethoxycarbonyl)-2-(thiazol-2-yl)-3,6-dihydropyrimidin-4-yl)piperidin-1-yl)picolinic Acid] | 2570 nM | 56 nM |
| CCOC(=O)C1=C(C2CCN(c3ccc(C(=O)O)cn3)CC2)NC(c2nccs2)=NC1c1ccc(F)c(F)c1Cl (single isomer, unassigned) [II-43-B, 6-(4-(6-(2-Chloro-3,4-difluorophenyl)-5-(ethoxycarbonyl)-2-(thiazol-2-yl)-3,6-dihydropyrimidin-4-yl)piperidin-1-yl)nicotinic Acid] | 11400 nM | 16 nM |
| CCOC(=O)C1=C(C2CCN(c3cc(C(F)(F)F)c(C(=O)O)cn3)CC2)NC(c2nccs2)=NC1c1ccc(F)c(F)c1Cl (single isomer, unassigned) [II-44-B, 6-(4-(6-(2-Chloro-3,4-difluorophenyl)-5-(ethoxycarbonyl)-2-(thiazol-2-yl)-3,6-dihydropyrimidin-4-yl)piperidin-1-yl)-4-(trifluoromethyl)nicotinic Acid] | 4770 nM | 7.6 nM |
| CCOC(=O)C1=C(C2CCN(c3ncc(C(=O)O)cc3F)CC2)NC(c2nccs2)=NC1c1ccc(F)c(F)c1Cl (single isomer, unassigned) [II-45-B, 6-(4-(6-(2-Chloro-3,4-difluorophenyl)-5-(ethoxycarbonyl)-2-(thiazol-2-yl)-3,6-dihydropyrimidin-4-yl)piperidin-1-yl)-5-fluoronicotinic Acid] | 4430 nM | 8.7 nM |
| CCOC(=O)C1=C(C2CCN(c3cc(C)c(C(=O)O)nn3)CC2)NC(c2nccs2)=NC1c1ccc(F)c(F)c1Cl (single isomer, unassigned) [II-46-B, 6-(4-(6-(2-Chloro-3,4-difluorophenyl)-5-(ethoxycarbonyl)-2-(thiazol-2-yl)-3,6-dihydropyrimidin-4-yl)piperidin-1-yl)-4-methylpyridazine-3-carboxylic Acid] | 3670 nM | 100 nM |
| CCOC(=O)C1=C(C2CCN(c3cnc(OC)c(C(=O)O)n3)CC2)NC(c2nccs2)=NC1c1ccc(F)c(F)c1Cl (single isomer, unassigned) [II-47-B, 6-(4-(6-(2-chloro-3,4-difluorophenyl)-5-(ethoxycarbonyl)-2-(thiazol-2-yl)-3,6-dihydropyrimidin-4-yl)piperidin-1-yl)-3-methoxypyrazine-2-carboxylic Acid] | 11100 nM | 25 nM |
| CCOC(=O)C1=C(C2CCN(c3cnc(C)c(C(=O)O)n3)CC2)NC(c2nccs2)=NC1c1ccc(F)c(F)c1Cl (single isomer, unassigned) [II-48-B, 6-(4-(6-(2-chloro-3,4-difluorophenyl)-5-(ethoxycarbonyl)-2-(thiazol-2-yl)-3,6-dihydropyrimidin-4-yl)piperidin-1-yl)-3-methylpyrazine-2-carboxylic Acid] | 12900 nM | 79 nM |
| CCOC(=O)C1=C(C2CCN(c3cnc(C(=O)O)c(C)n3)CC2)NC(c2nccs2)=NC1c1ccc(F)c(F)c1Cl (single isomer, unassigned) [II-49-B, 5-(4-(6-(2-Chloro-3,4-difluorophenyl)-5-(ethoxycarbonyl)-2-(thiazol-2-yl)-3,6-dihydropyrimidin-4-yl)piperidin-1-yl)-3-methylpyrazine-2-carboxylic Acid] | 110 nM | 50 nM |
| CCOC(=O)C1=C(C2CCN(c3ncc(C(=O)O)o3)CC2)NC(c2nccs2)=NC1c1ccc(F)c(F)c1Cl (single isomer, unassigned) [II-50-B, 2-(4-(6-(2-Chloro-3,4-difluorophenyl)-5-(ethoxycarbonyl)-2-(thiazol-2-yl)-3,6-dihydropyrimidin-4-yl)piperidin-1-yl)oxazole-5-carboxylic Acid] | 19000 nM | 26 nM |
